Measurements reported in ChEMBL document CHEMBL3885861, “Open TG-GATES”.

Species: Rattus norvegicus
Test: Open TG-GATES - Regimen: Daily Repeat
Type: toxicity, organism-based, Sprague-Dawley
Set-up: regimen Daily Repeat, gender Male, age 6 weeks
Conditions: in vivo, po, route gavage; for APTT / Bas / Eos / Fbg / Hb / Ht / Lym / MCH / MCHC / MCV / Mono / Neu / PT / Plat / RBC / Ret / WBC: tissue Blood; for A/G / ALP / ALT / AST / BUN / CRE / Ca / Cl / DBIL / GLC / IP / K / LDH / Na / PL / RALB / TBIL / TC / TG / TP / gamma-GTP: tissue Plasma
[1] = 30 mg/kg, 72 h, dose level Middle, time 3 day
[2] = 30 mg/kg, […], dose level Middle, time 7 day
[3] = 30 mg/kg, […], dose level Middle, time 14 day
[4] = 30 mg/kg, […], dose level Middle, time 28 day
[5] = 100 mg/kg, 72 h, dose level High, time 3 day
[6] = 100 mg/kg, […], dose level High, time 7 day
[7] = 100 mg/kg, […], dose level High, time 14 day
[8] = 100 mg/kg, […], dose level High, time 28 day

## Cn1cc[nH]c1=S [METHIMAZOLE]
[1]
  TERMINAL_BW: 217 g
  APTT: 20.8 s
  Bas: 0%
  Eos: 1%
  Fbg: 340.6 mg/dL
  Hb: 14 g/dL
  Ht: 39.7%
  Lym: 84%
  MCH: 21.6 pg
  MCHC: 35.2%
  MCV: 61.2 fL
  Mono: 2%
  Neu: 12.8%
  PT: 16.5 s
  Plat: 131.6 x10_4/uL
  RBC: 648.8 x10_4/ul
  Ret: 5.4%
  WBC: 83.8 x10_2/uL
  A/G: 1.2
  ALP: 1643.6 IU/L
  ALT: 41.2 IU/L
  AST: 61 IU/L
  BUN: 14.6 mg/dL
  CRE: 0.1 mg/dL
  Ca: 11 mg/dL
  Cl: 107 meq/L
  DBIL: 0.002 mg/dL
  GLC: 178.4 mg/dL
  IP: 6.6 mg/dL
  K: 4.4 meq/L
  LDH: 260.2 IU/L
  Na: 142.4 meq/L
  PL: 173 mg/dL
  RALB: 3.3 g/dL
  TBIL: 0.012 mg/dL
  TC: 94 mg/dL
  TG: 132.8 mg/dL
  TP: 5.9 g/dL
  gamma-GTP: 1.2 IU/L
[2]
  TERMINAL_BW: 231.6 g
  APTT: 20.9 s
  Bas: 0%
  Eos: 1%
  Fbg: 335.6 mg/dL
  Hb: 15.1 g/dL
  Ht: 41.3%
  Lym: 83.6%
  MCH: 22.3 pg
  MCHC: 36.7%
  MCV: 60.7 fL
  Mono: 2%
  Neu: 12.8%
  PT: 16.9 s
  Plat: 122.3 x10_4/uL
  RBC: 680 x10_4/ul
  Ret: 3.7%
  WBC: 90.9 x10_2/uL
  A/G: 1.1
  ALP: 1563.2 IU/L
  ALT: 34.4 IU/L
  AST: 57 IU/L
  BUN: 17.2 mg/dL
  CRE: 0.2 mg/dL
  Ca: 10.7 mg/dL
  Cl: 108 meq/L
  DBIL: 0.002 mg/dL
  GLC: 166.8 mg/dL
  IP: 6.7 mg/dL
  K: 4.2 meq/L
  LDH: 248.8 IU/L
  Na: 141.8 meq/L
  PL: 169.4 mg/dL
  RALB: 3.2 g/dL
  TBIL: 0.002 mg/dL
  TC: 97 mg/dL
  TG: 105 mg/dL
  TP: 6.3 g/dL
  gamma-GTP: 1 IU/L
[3]
  TERMINAL_BW: 256 g
  APTT: 21.6 s
  Bas: 0%
  Eos: 0.2%
  Fbg: 295 mg/dL
  Hb: 14.6 g/dL
  Ht: 41.6%
  Lym: 89%
  MCH: 20.2 pg
  MCHC: 35%
  MCV: 57.6 fL
  Mono: 1%
  Neu: 8.4%
  PT: 17.5 s
  Plat: 109.2 x10_4/uL
  RBC: 721.2 x10_4/ul
  Ret: 1.6%
  WBC: 89.2 x10_2/uL
  A/G: 1.1
  ALP: 1519.4 IU/L
  ALT: 31.2 IU/L
  AST: 48 IU/L
  BUN: 22.2 mg/dL
  CRE: 0.2 mg/dL
  Ca: 10.8 mg/dL
  Cl: 106.4 meq/L
  DBIL: 0.002 mg/dL
  GLC: 175.6 mg/dL
  IP: 6.2 mg/dL
  K: 3.8 meq/L
  LDH: 190.4 IU/L
  Na: 142.6 meq/L
  PL: 169 mg/dL
  RALB: 3.4 g/dL
  TBIL: 0.018 mg/dL
  TC: 105 mg/dL
  TG: 79.6 mg/dL
  TP: 6.7 g/dL
  gamma-GTP: 1 IU/L
[4]
  TERMINAL_BW: 282.7 g
  APTT: 21.4 s
  Bas: 0%
  Eos: 0.8%
  Fbg: 290.6 mg/dL
  Hb: 15.4 g/dL
  Ht: 42.4%
  Lym: 84.4%
  MCH: 19.3 pg
  MCHC: 36.2%
  MCV: 53.3 fL
  Mono: 2%
  Neu: 12.2%
  PT: 17.4 s
  Plat: 90.1 x10_4/uL
  RBC: 796 x10_4/ul
  Ret: 1%
  WBC: 91.7 x10_2/uL
  A/G: 1
  ALP: 839.6 IU/L
  ALT: 34 IU/L
  AST: 44 IU/L
  BUN: 21.2 mg/dL
  CRE: 0.3 mg/dL
  Ca: 10.4 mg/dL
  Cl: 106.2 meq/L
  DBIL: 0.006 mg/dL
  GLC: 169.8 mg/dL
  IP: 5.3 mg/dL
  K: 3.9 meq/L
  LDH: 154.8 IU/L
  Na: 142.2 meq/L
  PL: 159.6 mg/dL
  RALB: 3.5 g/dL
  TBIL: 0.014 mg/dL
  TC: 103.2 mg/dL
  TG: 53.8 mg/dL
  TP: 6.9 g/dL
  gamma-GTP: 2 IU/L
[5]
  TERMINAL_BW: 196.1 g
  APTT: 20.2 s
  Bas: 0%
  Eos: 1%
  Fbg: 316.5 mg/dL
  Hb: 14.8 g/dL
  Ht: 41.3%
  Lym: 81.4%
  MCH: 21.8 pg
  MCHC: 35.9%
  MCV: 60.6 fL
  Mono: 2.2%
  Neu: 14.6%
  PT: 15.9 s
  Plat: 118.8 x10_4/uL
  RBC: 682.8 x10_4/ul
  Ret: 3.7%
  WBC: 59.4 x10_2/uL
  A/G: 1.2
  ALP: 1390.6 IU/L
  ALT: 34.8 IU/L
  AST: 42.2 IU/L
  BUN: 16.6 mg/dL
  CRE: 0.1 mg/dL
  Ca: 10.8 mg/dL
  Cl: 108.2 meq/L
  DBIL: 0.004 mg/dL
  GLC: 162 mg/dL
  IP: 7.1 mg/dL
  K: 3.9 meq/L
  LDH: 258.6 IU/L
  Na: 141.8 meq/L
  PL: 180.8 mg/dL
  RALB: 3.2 g/dL
  TBIL: 0.028 mg/dL
  TC: 103 mg/dL
  TG: 62.2 mg/dL
  TP: 5.9 g/dL
  gamma-GTP: 1 IU/L
[6]
  TERMINAL_BW: 231.6 g
  APTT: 20.6 s
  Bas: 0%
  Eos: 1%
  Fbg: 347.6 mg/dL
  Hb: 14.7 g/dL
  Ht: 40.3%
  Lym: 86.8%
  MCH: 21.7 pg
  MCHC: 36.4%
  MCV: 59.6 fL
  Mono: 2.2%
  Neu: 8.4%
  PT: 17.9 s
  Plat: 132.4 x10_4/uL
  RBC: 677 x10_4/ul
  Ret: 2.3%
  WBC: 73.6 x10_2/uL
  A/G: 1.1
  ALP: 1556.6 IU/L
  ALT: 30.2 IU/L
  AST: 32.4 IU/L
  BUN: 18 mg/dL
  CRE: 0.2 mg/dL
  Ca: 11.1 mg/dL
  Cl: 107.2 meq/L
  DBIL: 0.004 mg/dL
  GLC: 161.4 mg/dL
  IP: 7 mg/dL
  K: 4.1 meq/L
  LDH: 221.8 IU/L
  Na: 141.4 meq/L
  PL: 203.2 mg/dL
  RALB: 3.5 g/dL
  TBIL: 0.01 mg/dL
  TC: 120 mg/dL
  TG: 89.4 mg/dL
  TP: 6.7 g/dL
  gamma-GTP: 1.8 IU/L
[7]
  TERMINAL_BW: 234.9 g
  APTT: 20.8 s
  Bas: 0%
  Eos: 0.4%
  Fbg: 430.8 mg/dL
  Hb: 14.5 g/dL
  Ht: 40.9%
  Lym: 80.4%
  MCH: 20.4 pg
  MCHC: 35.4%
  MCV: 57.7 fL
  Mono: 2.6%
  Neu: 15%
  PT: 18.1 s
  Plat: 100.4 x10_4/uL
  RBC: 708.8 x10_4/ul
  Ret: 1.4%
  WBC: 65 x10_2/uL
  A/G: 1
  ALP: 984.4 IU/L
  ALT: 30.8 IU/L
  AST: 26.6 IU/L
  BUN: 21.6 mg/dL
  CRE: 0.3 mg/dL
  Ca: 11.1 mg/dL
  Cl: 106.4 meq/L
  DBIL: 0.006 mg/dL
  GLC: 164.8 mg/dL
  IP: 6.3 mg/dL
  K: 4 meq/L
  LDH: 182.6 IU/L
  Na: 142.6 meq/L
  PL: 201.4 mg/dL
  RALB: 3.6 g/dL
  TBIL: 0.034 mg/dL
  TC: 140.2 mg/dL
  TG: 44.4 mg/dL
  TP: 7.2 g/dL
  gamma-GTP: 2 IU/L
[8]
  TERMINAL_BW: 244.7 g
  APTT: 19.9 s
  Bas: 0%
  Eos: 0.2%
  Fbg: 298.4 mg/dL
  Hb: 14.9 g/dL
  Ht: 40.7%
  Lym: 87.4%
  MCH: 19.6 pg
  MCHC: 36.7%
  MCV: 53.4 fL
  Mono: 1.8%
  Neu: 9.4%
  PT: 18.1 s
  Plat: 77.6 x10_4/uL
  RBC: 761.4 x10_4/ul
  Ret: 0.7%
  WBC: 79.7 x10_2/uL
  A/G: 1.1
  ALP: 910 IU/L
  ALT: 33.4 IU/L
  AST: 25.8 IU/L
  BUN: 24.8 mg/dL
  CRE: 0.3 mg/dL
  Ca: 10.8 mg/dL
  Cl: 105.6 meq/L
  DBIL: 0.028 mg/dL
  GLC: 166.6 mg/dL
  IP: 5.6 mg/dL
  K: 3.5 meq/L
  LDH: 151.2 IU/L
  Na: 143.8 meq/L
  PL: 167.6 mg/dL
  RALB: 3.7 g/dL
  TBIL: 0.048 mg/dL
  TC: 110 mg/dL
  TG: 42 mg/dL
  TP: 7.2 g/dL
  gamma-GTP: 2.6 IU/L
